Results from US20130065958A1, “METHODS FOR DISINFECTING OR STERILIZING ARTICLES” (priority 2011, published 2013).
Where “and” joins values, the source holds several entries; their conditions need not be identical. Equal entries are not always repeated. Where two headings read alike, the source gives them in different places.

Test system: Bacillus atrophaeus ATCC 9372 spores
Conditions: 3 drops, overnight (15 hours) at 35 C
Method: Before sealing, the inside surface of the bottle cap (liner removed) or its foam liner had been inoculated with a 10 μL droplet of Bacillus atrophaeus ATCC 9372 spores dried down onto the cap or liner surface. Bacillus atrophaeus ATCC 9372 spores are known to be of relatively high resistance to peroxide disinfection and are a recommended (for example, the U.S. Pharmacopeia) resistant organism for disinfection studies using chemicals (such as peroxide or ethylene oxide) or dry heat.

## OO [3% hydrogen peroxide, hydrogen peroxide]
Inoculated on cap
  CFU Recovered: 425000 CFU and 475000 CFU
  Log Reduction: 1.2 and 1.1
Inoculated on liner
  CFU Recovered: 830000 CFU
  Log Reduction: 0.4
